Key:
BALB/c mice = experiment: Acute toxicity in healthy mice; type: in vivo, mouse; settings: dissolved in PBS
Description: Female mice weighing approximately 20–25 g, 8–12 weeks were obtained from Janvier Laboratories (Le Genest-Saint-Isle, France). All mice received a standard laboratory diet and water ad libitum. The use of immunosuppressed animals is always a limitation since they are not a true reflection of an animal with a functional immune system and, therefore, can affect both the toxicological response and the biodistribution of a compound, but they are essential to be able to implant human tumor cells, otherwise the tumor would be rejected by the immune system. Therefore, in order to analyze the biodistribution, toxicology and efficacy of a compound against a tumor, it is necessary to use different animals. Animal studies were approved by the Bioethics Committee of the Universidade de Santiago de Compostela and were done in compliance with the principles of laboratory animal care according to Spanish national law (RD 53/2013).

A549 cells = experiment: MTT viability with NAC pre-incubation; type: cell-based, human; settings: NAC 10 mM 2 h pre-incubation, then 24 h
Protocol: Cytotoxicity. MTT Assay and IC50 estimation. The cytotoxicity of 1[C,NH-Cl], 2[C,NMe-Cl], 3[N,NH-Cl]Cl, 4[N,NMe-Cl]Cl, 5[CNH2,NH-Cl]Cl, 6[CNH2,S-Cl]Cl, 7[CO,NH-Cl] and 8[CO,S-Cl] in A2780, A2780cis, SW480 and A549 carcinoma cells was evaluated by the MTT colorimetric assay. Cells were seeded in 96-well plates at 5000 cells per well and incubated at 37 °C, 5% CO2. After 24 h, the medium was removed and replaced with fresh medium with different concentrations of the compounds under study, and they were incubated for 48 h. Final DMSO concentration was kept below 0.7% in wells. For a negative control, one sequence of cells was left untreated and for vehicle control, cells treated with DMSO were included. For cell viability experiments preincubating with NAC (N-Acetyl-L-Cysteine), the cells were pre-treated with NAC, 10 mM for 2 h before the incubation with complex 1[C,NH-Cl] for 24 h. Then, the medium was removed from the wells, and 100 µL MTT (5 mg/mL) was added. […] Cell growth inhibition was detected by measuring the absorbance of each well at 595 nm using a BioTek Cytation5 microplate reader. […] The percentage of survival cells was calculated using absorbance measurements compared with control and the IC50 estimation using Graph Pad Prism version 6.01.

**Q.** How did the Maximum tolerated dose (BALB/c mice) turn out when `Cc1c(C)c(C)[c-](C)c1C.[Cl][Ir]1[c]2ccccc2-c2[nH]c3ccccc3[n+]21` [1[C,NH], [(η^5-Cp*)IrCl(κ^2-N,C-pbim)]] was run?
**A.** Its Maximum tolerated dose is 1.3 mg/kg.

**Q.** And the “Rescue of cytotoxicity by NAC” value (A549 cells)?
**A.** Its value is “partial rescue”.

Reference: article PMC9818021, “Targets, Mechanisms and Cytotoxicity of Half-Sandwich Ir(III) Complexes Are Modulated by Structural Modifications on the Benzazole Ancillary Ligand” (Cancers, 2022)
